Data taken from patent publication US9169285B2, “Methods for purifying steviol glycosides and uses of the same” (The Coca-Cola Company, priority 2011, dated 2015).
Entries after “also recorded” stand apart in the source; their conditions may differ.

Experiments:
one experienced panelist = assay: Taste evaluation of Reb X against Reb A and Reb D, controlled multi-sip and swallow taste method; type: in vivo, human; conditions: for Taste Properties: 500 ppm in citric buffer (pH 3.22)
Procedure: The taste properties of a sample of Reb X were studied against Rebaudioside A (Reb A) and Rebaudioside D (Reb D) samples. Reb A was obtained from Cargill (lot #1040) and Reb-D was obtained from PureCircle (lot #Nov. 3, 2008).
The samples were prepared at 500 ppm for sweetness evaluation by adding moisture compensated mass into a 100 mL sample of carbon-treated water and citric buffer solutions.
(§1) Citric buffer was prepared by mixing 1.171 g/L citric acid, 0.275 g/L sodium citrate and 0.185 g/L sodium benzoate with carbon-treated water, with a final pH of 3.22. The mixtures were moderately stirred at room temperature. The Reb X sample was then evaluated against the two control Reb A and Reb D samples in water and citric buffer at room temperature (RT) and at 4° C. in an ice bath by one experienced panelist for any tasting quality determinations using the controlled, multi-sip and swallow taste method shown below:
1. Take first sip (˜1.8 mL) of control and swallow. Wait for 15-25 sec, then take second sip of control and wait for 15-25 sec.
2. Take first sip of the experimental sample, wait for 15-25 sec, then take second sip. Compare to second sip of control.
3. Repeat steps #1 and #2 for the third and fourth sips of the control and experimental samples to confirm the initial finding.

panelists = assay: Sensory properties of steviol glycosides in acidified water (pH 3.0) at 500 mg/L, 20 panelists; type: in vivo, human; conditions: for Overall evaluation: Satisfactory, number of panelists / Quality of sweet taste (comment) / Quality of sweet taste: number of panelists giving the comment / Astringent taste: number of panelists detected the attribute / Bitter taste: number of panelists detected the attribute / Licorice taste: number of panelists detected the attribute / Sweet Aftertaste: number of panelists detected the attribute: 500 ppm (sucrose 10,000 ppm); for Astringent taste: number of panelists detected the attribute / Bitter taste: number of panelists detected the attribute / Licorice taste: number of panelists detected the attribute / Sweet Aftertaste: number of panelists detected the attribute: acidified water pH 3.0 by phosphoric acid, 20 panelists
Procedure: The sensory properties of Reb X were evaluated in acidified water (pH 3.0 by phosphoric acid) at 500 mg/L concentration by 20 panelists.

[1] = tested on: semi-trained panel members; assay: Sensory comparison of Reb X and Reb A, iso-sweet samples of 8% sucrose equivalent sweetness; type: in vivo, human
Procedure: To compare the sensory attributes between Reb X and Reb A, iso-sweet samples having 8% sucrose equivalent sweetness were made with filtered water as shown in Table 8. An 8% sugar solution in water at room temperature was used as a control. An 8% sugar solution in the acidified solution was used as the control. The samples prepared with filtered water were evaluated by 34 semi-trained panel members at room temperature. The samples prepared with acidified water were evaluated by 23 semi-trained panel members at room temperature. Samples were given to the panel members sequentially and coded with triple digit numbers. The order of sample presentation was randomized to avoid order of presentation bias. Water and unsalted crackers were provided in order to cleanse the palate. The panel members were asked to rate different attributes including sweetness onset, total sweetness, rounded sweetness, bitterness, acidity, leafy note, licorice, astringency, mouthfeel, mouth coating, sweet lingering, and bitter lingering. Samples were rated on a scale of zero (0) to ten (10), with zero indicating immediate onset, no intensity, watery/low viscosity, or very sharp peak, and ten indicating very delayed onset, high intensity, thick/high viscosity, or very round peak. One-way single factor ANOVA was used to analyze sensory results, where α=0.05.

[2] = Taste comparison of Reb X and Reb A in beverage formulations; type: in vivo
[3] = Solubility of the Reb X stock solution in citric buffer; type: physicochemical; conditions: Reb X 0.06% (w/v) in citric buffer, up to 52° C., ca. 15-20 minutes
Procedure: (§2) The isosweetness levels of Reb X in a citric buffer system at room temperature and 4° C. were evaluated. A 600 ppm stock solution of Reb X was prepared by adding a mass of 0.15 g into a 250 mL sample of citric buffer (CB) solution. The mixture was moderately stirred at warmer temperature (up to ca. 52° C.) on a heated stirrer for about 15-20 minutes and then cooled. The citric buffer was prepared by adding 1.6 g citric acid, 0.6 g potassium citrate and 0.253 g sodium benzoate in 1 L of carbon-treated water. The pH of the mixture was 3.1. Seven diluted Reb X solutions at […], 25, 50, 100, 200, 300, 400 and 500 ppm were prepared by adding a 2.08, 4.17, 8.33, 16.67, 25.00, 33.33 and 41.67 mL Reb X stock solution, respectively, into each 50 mL solution of CB. The controls of 0.75%, 2%, 4%, 6%, 8%, 10% and 15% sucrose equivalence (SE) were also prepared by adding sugar (w/v) into the CB. The mixtures were moderately stirred and then ready for the isosweetness determination test. The Reb X samples were then evaluated against the control sugar samples in citric buffer at room temperature (RT) and 4° C. (in an ice bath) by one experienced taster for an isosweetness determination using the controlled, multi-sip and swallow taste method.

[4] = Solubility studies of Reb X in carbon-treated water and citrate buffer; type: physicochemical
Procedure: as §1
The samples used to evaluate the taste properties in Example 2 were also used for solubility studies.

one experienced taster = assay: Isosweetness determination of Reb X in citric buffer against sucrose controls; type: in vivo, human
Procedure: as §2

panel of trained tasters = assay: Reb X sweetness vs. concentration, matched to sucrose reference solutions; type: in vivo, human; conditions: Sweetness Equivalent (SE) 2.5%; Reb X 98% purity; water, room temperature
Procedure: 2.5%, 5.0%, 7.5%, and 10.0% sucrose solutions were prepared in neutral (7.0 pH) and acidified water (3.2 pH) as reference samples. Solutions containing Reb X (98% purity) were prepared to match the sweetness of each sucrose reference in neutral and acidified water. Samples were tasted and verified by a panel of trained tasters in water at room temperature.

[5] = acidified water pH 3.0, 20 panelists

C=C1C[C@@]23CC[C@H]4[C@@](C)(CCC[C@@]4(C)C(=O)O[C@@H]4O[C@H](CO)[C@@H](O)[C@H](O)[C@H]4O[C@@H]4O[C@H](CO)[C@@H](O)[C@H](O)[C@H]4O)[C@@H]2CC[C@]1(O[C@@H]1O[C@H](CO)[C@@H](O)[C@H](O[C@@H]2O[C@H](CO)[C@@H](O)[C@H](O)[C@H]2O)[C@H]1O[C@@H]1O[C@H](CO)[C@@H](O)[C@H](O)[C@H]1O)C3 [Reb D, Rebaudioside D]
Taste Properties (one experienced panelist; 4° C.): more sweet | Overall evaluation: Satisfactory, number of panelists (panelists; [5]): (11 of 20) | Quality of sweet taste (comment) (panelists; [5]): Clean | Quality of sweet taste: number of panelists giving the comment (panelists; [5]): 9 of 20 | Astringent taste: number of panelists detected the attribute (panelists): 3 | Bitter taste: number of panelists detected the attribute (panelists): 3 | Licorice taste: number of panelists detected the attribute (panelists): 2 | Sweet Aftertaste: number of panelists detected the attribute (panelists): 5

OC[C@H]1O[C@@](CO)(O[C@H]2O[C@H](CO)[C@@H](O)[C@H](O)[C@H]2O)[C@@H](O)[C@@H]1O [Sucrose]
Overall evaluation: Satisfactory, number of panelists (panelists; [5]): (20 of 20) | Quality of sweet taste (comment) (panelists; [5]): Clean | Quality of sweet taste: number of panelists giving the comment (panelists; [5]): 20 of 20

C=C1C[C@@]23CC[C@H]4[C@@](C)(CCC[C@@]4(C)C(=O)O[C@@H]4O[C@H](CO)[C@@H](O)[C@H](O)[C@H]4O)[C@@H]2CC[C@]1(O[C@@H]1O[C@H](CO)[C@@H](O)[C@H](O)[C@H]1O[C@@H]1O[C@H](CO)[C@@H](O)[C@H](O)[C@H]1O)C3 [Stevioside]
Quality of sweet taste (comment) (panelists; [5]): Bitter | Quality of sweet taste: number of panelists giving the comment (panelists; [5]): (20 of 20)

C=C1C[C@@]23CCC4[C@](C)(C(=O)OC5OC(CO)C(O)C(OC6OC(CO)C(O)C(O)C6O)C5OC5OC(CO)C(O)C(O)C5O)CCC[C@@]4(C)[C@@H]2CCC1(OC1OC(CO)C(O)C(OC2OC(CO)C(O)C(O)C2O)C1OC1OC(CO)C(O)C(O)C1O)C3 (stereo partly drawn) [Reb X, 13-[(2-O-β-D-glucopyranosyl-3-O-β-D-glucopyranosyl-β-D-glucopyranosyl)oxy]ent kaur-16-en-19-oic acid-[(2-O-β-D-glucopyranosyl-3-O-β-D-glucopyranosyl-β-D-glucopyranosyl)ester]]
Sweetness onset, non-sweet taste and bitterness lingering compared with Reb A ([1]; acidified water (250 ppm citric acid, pH 3.2), 23 panel members, FIG. 12): faster sweetness onset, reduced non-sweet taste (bitterness, sour, astringency) and bitterness lingering | Sweetness compared with Reb A ([1]; acidified water (250 ppm citric acid, pH 3.2), Reb X 0.0423% vs Reb A 0.0510%, 23 panel members, FIG. 12): perception of higher sweetness of Reb X over Reb A is significant | Bitterness, astringency and bitter lingering compared with Reb A ([1]; filtered water, Reb X 0.0423% vs Reb A 0.0510%, 34 panel members, scale 0-10, FIG. 11): reduced perception of bitterness, astringency and bitter lingering compared to Reb A | Taste properties compared with Reb A drink ([2]; flavored zero calorie black tea drink, 250 ppm): much cleaner in finish with less sweetness linger and a more rounded overall sweetness profile | Taste properties compared with Reb A drink ([2]; zero calorie enhanced water drink, 200 ppm): cleaner in finish and had reduced sweetness linger and a more rounded overall sweetness taste quality | Reb X level closest in sweetness level to a 11.5 Brix high fructose corn syrup sweetened orange flavored sparkling beverage ([2]; zero calorie orange-flavored sparkling beverage base): 500 ppm | Taste compared with Reb A-containing formulations ([2]; zero calorie orange-flavored sparkling beverage, Reb X 400 to 750 ppm in 50 ppm increments): tasted significantly better than comparable Reb A-containing formulations | Solubility and appearance [3]: very soluble and clear (colorless) | Solubility, initial solubility test ([4]; 500 ppm in citrate buffer, compared with Reb D and Reb A): similar, limited but significantly greater solubility than that of Reb D and significantly less solubility than Reb A | Estimated time to solubilize ([4]; Reb X 0.01% in carbon-treated water): 15 min | Estimated time to solubilize ([4]; Reb X 0.01% in citrate buffer): 25 min | Estimated time to solubilize ([4]; Reb X 0.02% in carbon-treated water): 25 min | Estimated time to solubilize ([4]; Reb X 0.02% in citrate buffer): 25 min | Estimated time to solubilize ([4]; Reb X 0.04% in carbon-treated water): 33 min | Estimated time to solubilize ([4]; Reb X 0.04% in citrate buffer): 35 min | Estimated time to solubilize ([4]; Reb X 0.05% in carbon-treated water): 39 min | Estimated time to solubilize ([4]; Reb X 0.05% in citrate buffer): 42 min | Estimated time to solubilize ([4]; Reb X 0.075% in carbon-treated water): 55 min | Estimated time to solubilize ([4]; Reb X 0.075% in citrate buffer): 55 min | Estimated time to solubilize ([4]; Reb X 0.10% in carbon-treated water): 106 min | Estimated time to solubilize ([4]; Reb X 0.10% in citrate buffer): 106 min | Estimated time to solubilize ([4]; Reb X 0.15% in carbon-treated water): Insoluble after 20 hours | Estimated time to solubilize ([4]; Reb X 0.15% in citrate buffer): Insoluble after 20 hours | Taste Properties (one experienced panelist; room temperature): temporal profile and quality similar to sucrose; also recorded: Clean sweet taste. Broad and full sweetness profile; also recorded: Moderate sweetness linger aftertaste similar to aspartame | Astringency, sweetness depth and bitterness notes (one experienced panelist; 500 ppm, citrate buffer system, compared with Reb A): did not have the astringency or sweetness intense (depth) and bitterness notes compared to that of the Reb A | Taste quality compared with Reb A and Reb D (one experienced panelist; 500 ppm, citric buffer): much better than Reb A or Reb D | Tasting quality, temporal profile and sweetness linger (one experienced panelist; 500 ppm, citric buffer, compared with Reb A): did not display a pure sugar-like tasting quality but rather contained a fatty-like or broader sweet temporal profile and less sweetness linger than that of Reb A | Off-flavors (one experienced taster; Reb X 12.5-600 ppm in citric buffer at 4° C.): No off-flavors at any Reb X concentrations in CB at 4 °C were detected, except at least ca. 300 ppm which noticeably had a longer sweetness lingering | Sweetness intensity difference between RT and 4° C. (one experienced taster; Reb X concentration range, direct comparison with control sucrose at similar temperatures): no significant sweetness intensity difference between RT and 4 °C | Sweetness tasting quality (one experienced taster; all Reb X concentrations (12.5-600 ppm), citric buffer): pleasant sweetness tasting quality with a slight delay of sweetness onset and no bitterness | Reb X Concentration matching the sucrose reference (panel of trained tasters): 48 ppm | Quality of sweet taste (comment) (panelists; [5]): Clean | Taste profile compared with known steviol glycosides (panelists; 500 ppm, acidified water pH 3.0, 20 panelists): superior taste profile to already known steviol glycosides

C=C1C[C@@]23CC[C@H]4[C@@](C)(CCC[C@@]4(C)C(=O)O[C@@H]4O[C@H](CO)[C@@H](O)[C@H](O)[C@H]4O)[C@@H]2CC[C@]1(O[C@@H]1O[C@H](CO)[C@@H](O)[C@H](O[C@@H]2O[C@H](CO)[C@@H](O)[C@H](O)[C@H]2O)[C@H]1O[C@@H]1O[C@H](CO)[C@@H](O)[C@H](O)[C@H]1O)C3 [Reb A, Rebaudioside A]
Taste Properties (one experienced panelist; 4° C.): more sweet | Taste Properties (one experienced panelist; room temperature): Delayed sweetness onset, significant lingering sweet | Overall evaluation: Satisfactory, number of panelists (panelists; [5]): (1 of 20) | Quality of sweet taste (comment) (panelists; [5]): Bitter | Quality of sweet taste: number of panelists giving the comment (panelists; [5]): (20 of 20) | Astringent taste: number of panelists detected the attribute (panelists): 20 | Bitter taste: number of panelists detected the attribute (panelists): 20 | Licorice taste: number of panelists detected the attribute (panelists): 20 | Sweet Aftertaste: number of panelists detected the attribute (panelists): 20
